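Step 1: Grow cells in 96-well plates. Step 2: Expose to compound for 48 hours at 5 concentrations. Step 3: Interpolate endpoints linearly; if unreached, use highest concentration. At the TGI there is no net growth.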
Columns and labels:
Test in all cases: NCI-60 cell line screen, 48 h
OVCAR-5 ovarian = tested on: OVCAR-5 ovarian
NCI-H23 lung = tested on: NCI-H23 lung
CAKI-1 renal = tested on: CAKI-1 renal
ACHN renal = tested on: ACHN renal
EKVX NSCLC = tested on: EKVX NSCLC
IGROV1 ovarian = tested on: IGROV1 ovarian
SF-295 CNS = tested on: SF-295 CNS
M19-MEL melanoma = tested on: M19-MEL melanoma
RXF 393 renal = tested on: RXF 393 renal
SK-MEL-2 melanoma = tested on: SK-MEL-2 melanoma
SNB-78 CNS = tested on: SNB-78 CNS
SF-268 CNS = tested on: SF-268 CNS
HT29 colon = tested on: HT29 colon
SR leukemia = tested on: SR leukemia
HS 578T breast = tested on: HS 578T breast
MCF7 breast = tested on: MCF7 breast
T-47D breast = tested on: T-47D breast

SMILES | TGI (OVCAR-5 ovarian) | TGI (NCI-H23 lung) | TGI (CAKI-1 renal) | TGI (ACHN renal) | TGI (EKVX NSCLC) | TGI (IGROV1 ovarian) | TGI (SF-295 CNS) | TGI (M19-MEL melanoma) | TGI (RXF 393 renal) | TGI (SK-MEL-2 melanoma) | TGI (SNB-78 CNS) | TGI (SF-268 CNS) | TGI (HT29 colon) | TGI (SR leukemia) | TGI (HS 578T breast) | TGI (MCF7 breast) | TGI (T-47D breast)
CN1C(=O)n2c(nc3ccccc32)C(N=[N+]=[N-])(N=[N+]=[N-])C1=O (stereo unspecified) | > 100 µM | > 100 µM | > 100 µM | > 100 µM | > 100 µM | > 100 µM | > 100 µM | > 100 µM | > 100 µM | > 100 µM | > 100 µM | > 100 µM | > 100 µM | – | – | – | –
CS(=O)(=O)c1nc(N)nc2nc[nH]c12 | > 100 µM | > 100 µM | > 100 µM | > 100 µM | > 100 µM | > 100 µM | > 100 µM | > 100 µM | > 100 µM | > 100 µM | > 100 µM | > 100 µM | > 100 µM | > 100 µM | – | – | –
COC1Cc2c(C)c(OC(C)=O)c3cccnc3c2O1 (stereo unspecified) | 32.7 µM | 36.3 µM | > 100 µM | 22.8 µM | 30.6 µM | 37.3 µM | 93.3 µM | – | 31.7 µM | 31.2 µM | – | 34 µM | > 100 µM | 61.2 µM | > 100 µM | 39.7 µM | 62.3 µM
O=C(OCc1ccccc1)N1CCNCCNCC1 | > 100 µM | > 100 µM | > 100 µM | > 100 µM | > 100 µM | > 100 µM | > 100 µM | – | > 100 µM | > 100 µM | – | > 100 µM | > 100 µM | > 100 µM | > 100 µM | > 100 µM | > 100 µM
CC1=CC(C)C(C)N(CCNC(=O)Nc2ccccc2)c2ccccc21 (stereo unspecified) | 92.6 µM | 49.1 µM | 49.6 µM | 63.7 µM | 76.3 µM | > 100 µM | 40.6 µM | – | 40.3 µM | 56.2 µM | – | > 100 µM | 32.1 µM | 46.4 µM | 30.3 µM | 50.3 µM | 61.2 µM
C1COC2SC3=C(SC(=C4SC5=C(SCCS5)S4)S3)SC2O1 (stereo unspecified) | > 100 µM | > 100 µM | > 100 µM | > 100 µM | > 100 µM | > 100 µM | > 100 µM | – | > 100 µM | > 100 µM | – | > 100 µM | > 100 µM | 78.3 µM | > 100 µM | > 100 µM | > 100 µM
CCOC(=O)CSc1nc(-c2ccc(OC)cc2)c(C#N)c(=O)[nH]1 | > 100 µM | > 100 µM | > 100 µM | > 100 µM | > 100 µM | > 100 µM | > 100 µM | – | > 100 µM | > 100 µM | – | > 100 µM | > 100 µM | > 100 µM | > 100 µM | > 100 µM | > 100 µM
CC(=O)C1(c2ccccc2)CCN(Cn2sc3nc(C)cc(C)c3c2=O)CC1 | 39 µM | 41.6 µM | > 100 µM | 33.5 µM | 58.1 µM | > 100 µM | > 100 µM | – | 39.3 µM | > 100 µM | – | > 100 µM | 36.9 µM | > 100 µM | > 100 µM | > 100 µM | > 100 µM
Cc1cc(C)c2c(=O)cc(-c3ccc(Cl)cc3)[nH]c2n1 | > 100 µM | > 100 µM | > 55.4 µM | > 100 µM | > 100 µM | > 100 µM | > 73.3 µM | – | > 100 µM | > 100 µM | – | > 100 µM | > 48.5 µM | > 100 µM | > 100 µM | > 100 µM | > 100 µM
CC(C#N)c1cn(S(=O)(=O)c2ccccc2)c2ccccc12 (stereo unspecified) | > 100 µM | > 100 µM | > 100 µM | > 100 µM | – | > 100 µM | > 100 µM | > 100 µM | – | > 100 µM | – | > 100 µM | > 100 µM | > 100 µM | – | – | –
COC(=O)c1cc(C#N)[nH]c1-c1ccsc1 | > 100 µM | > 100 µM | > 100 µM | > 100 µM | > 100 µM | > 100 µM | > 100 µM | – | > 100 µM | > 100 µM | – | > 100 µM | > 100 µM | > 100 µM | > 100 µM | > 100 µM | > 100 µM
C[C@]12CCC3c4ccc(OC(=O)c5ccccc5)cc4CC[C@H]3C1CC[C@@H]2OC(=O)C12OC1CCC2=O (stereo partly specified) | 21.4 µM | 9.76 µM | – | 10.4 µM | 15 µM | 9.22 µM | 28.7 µM | 11.3 µM | 4.51 µM | 16 µM | 14.1 µM | 14.6 µM | 7.55 µM | 13.5 µM | – | – | –
C=CCNC1=C2C[C@@H](C)C[C@@H](OC)[C@H](OC(=O)CN(C)C)[C@H](C)/C=C(\C)[C@@H](OC(N)=O)[C@H](OC)/C=C\C=C(/C)C(=O)NC(=CC1=O)C2=O | 25.7 µM | 19.8 µM | 31.9 µM | 20.1 µM | 21.8 µM | 13.5 µM | 13.5 µM | – | > 41.3 µM | 13.9 µM | – | 30.5 µM | 12.7 µM | > 32 µM | 47.7 µM | 14.3 µM | > 42.2 µM
CCN1C(C)=NC2C(=O)c3ccccc3C(=O)C21 (stereo unspecified) | – | > 100 µM | – | > 100 µM | – | > 100 µM | > 100 µM | > 100 µM | > 100 µM | > 100 µM | – | > 100 µM | > 100 µM | > 100 µM | – | – | –
O=C1O/C(=C\c2ccc(O)c(Br)c2)C(c2ccc(O)cc2)=C1Cl | > 100 µM | 61.6 µM | > 100 µM | > 100 µM | > 100 µM | > 100 µM | > 100 µM | – | 84.4 µM | > 100 µM | – | 86.2 µM | > 100 µM | > 100 µM | > 100 µM | 49.5 µM | > 100 µM
CCOC(=O)Cc1ccc(Nc2nc3cc(C(F)(F)F)ccc3nc2C(=O)OCC)cc1 | > 100 µM | > 100 µM | > 100 µM | > 100 µM | > 100 µM | > 100 µM | > 100 µM | – | 51.5 µM | > 100 µM | – | > 100 µM | > 100 µM | > 100 µM | 85.1 µM | > 100 µM | > 100 µM
CCCCCCCC/C=C\CCCCCCCCNc1ccn(C2OC(COP(=O)(O)OC3CC(n4cc(F)c(=O)[nH]c4=O)OC3CO)C(O)C2O)c(=O)n1 (stereo unspecified) | > 100 µM | > 30.3 µM | > 100 µM | > 100 µM | > 100 µM | > 100 µM | > 100 µM | – | > 100 µM | > 100 µM | – | > 100 µM | > 61.8 µM | 37.7 µM | > 100 µM | > 100 µM | > 100 µM
